Measurements from patent publication US9145411B2, “Substituted amino-pyrimidine derivatives” (Asana Biosciences, LLC, priority 2012, dated 2015).

Tests used:
PC3 cells = experiment: XTT assay for cell viability, PC3 cells; format: cell-based; conditions: Homo sapiens, PC-3; PC3 cell proliferation, 96 hours
Procedure: Using a commercial kit from Sigma Aldrich (Catalog #X34251) and following its protocol, PC3 cells in the log phase of growth were employed and seeded at an optimal density of 1000 cell/well on to 96 well plates and incubated for 24 hours followed by the addition of compounds of formula (I) in serial dilutions. Compound dilutions were made in DMSO. The cells were incubated with the compounds of formula (I) for 96 hours and XTT tetrazolium dye (Sigma, USA) was subsequently added and incubated at 37° C. After the color formation, absorbance was measured at 465 nm in a Spectramax® Gemini spectrophotometer. EC50 values were calculated using a sigmoidal dose response curve fit in GraphPad Prism® v5 software. The tested compounds of formula (I) which caused inhibition of PC3 cell proliferation as determined by this assay protocol are shown in Table 2.

PI3Kα (wild-type) = target: T1, PI3Kα (wild-type) (Homo sapiens, UniProt P42336); experiment: PI3 Kinase TR-FRET assay, PI3Kα (wild-type); format: biochemical; conditions: wild-type P110/P85α, 10 μM ATP
T1 construct: made in house; host or cells: SF9 insect cells
T1 sequence (P42336 whole entry, species assumed): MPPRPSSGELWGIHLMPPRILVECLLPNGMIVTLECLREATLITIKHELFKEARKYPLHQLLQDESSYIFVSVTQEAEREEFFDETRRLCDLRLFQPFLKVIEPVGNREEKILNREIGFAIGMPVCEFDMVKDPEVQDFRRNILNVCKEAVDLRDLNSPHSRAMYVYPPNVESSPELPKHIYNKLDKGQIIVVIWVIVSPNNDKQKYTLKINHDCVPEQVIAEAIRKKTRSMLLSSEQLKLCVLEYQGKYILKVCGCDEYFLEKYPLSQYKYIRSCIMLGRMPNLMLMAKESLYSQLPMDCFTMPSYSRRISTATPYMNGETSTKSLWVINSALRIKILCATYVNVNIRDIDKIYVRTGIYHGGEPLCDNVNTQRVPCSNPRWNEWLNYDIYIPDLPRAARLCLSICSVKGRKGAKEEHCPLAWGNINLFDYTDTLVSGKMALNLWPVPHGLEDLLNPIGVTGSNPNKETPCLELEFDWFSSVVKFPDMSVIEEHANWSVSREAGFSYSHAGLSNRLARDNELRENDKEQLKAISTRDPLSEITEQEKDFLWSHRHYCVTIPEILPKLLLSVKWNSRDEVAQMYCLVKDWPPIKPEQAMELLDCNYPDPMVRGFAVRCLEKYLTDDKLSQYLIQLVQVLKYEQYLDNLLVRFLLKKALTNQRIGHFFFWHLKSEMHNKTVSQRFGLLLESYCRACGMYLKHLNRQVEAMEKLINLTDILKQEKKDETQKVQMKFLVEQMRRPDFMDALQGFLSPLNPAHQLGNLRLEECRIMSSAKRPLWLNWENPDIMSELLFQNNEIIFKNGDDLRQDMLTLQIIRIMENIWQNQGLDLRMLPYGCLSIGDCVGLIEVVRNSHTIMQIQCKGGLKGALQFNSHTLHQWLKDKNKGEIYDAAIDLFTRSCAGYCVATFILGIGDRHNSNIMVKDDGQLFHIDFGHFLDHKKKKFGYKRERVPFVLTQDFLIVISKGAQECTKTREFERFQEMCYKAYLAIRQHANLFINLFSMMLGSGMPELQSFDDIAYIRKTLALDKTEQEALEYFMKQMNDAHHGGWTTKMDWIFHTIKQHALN
T1 sequence (P27986 whole entry partner, species assumed): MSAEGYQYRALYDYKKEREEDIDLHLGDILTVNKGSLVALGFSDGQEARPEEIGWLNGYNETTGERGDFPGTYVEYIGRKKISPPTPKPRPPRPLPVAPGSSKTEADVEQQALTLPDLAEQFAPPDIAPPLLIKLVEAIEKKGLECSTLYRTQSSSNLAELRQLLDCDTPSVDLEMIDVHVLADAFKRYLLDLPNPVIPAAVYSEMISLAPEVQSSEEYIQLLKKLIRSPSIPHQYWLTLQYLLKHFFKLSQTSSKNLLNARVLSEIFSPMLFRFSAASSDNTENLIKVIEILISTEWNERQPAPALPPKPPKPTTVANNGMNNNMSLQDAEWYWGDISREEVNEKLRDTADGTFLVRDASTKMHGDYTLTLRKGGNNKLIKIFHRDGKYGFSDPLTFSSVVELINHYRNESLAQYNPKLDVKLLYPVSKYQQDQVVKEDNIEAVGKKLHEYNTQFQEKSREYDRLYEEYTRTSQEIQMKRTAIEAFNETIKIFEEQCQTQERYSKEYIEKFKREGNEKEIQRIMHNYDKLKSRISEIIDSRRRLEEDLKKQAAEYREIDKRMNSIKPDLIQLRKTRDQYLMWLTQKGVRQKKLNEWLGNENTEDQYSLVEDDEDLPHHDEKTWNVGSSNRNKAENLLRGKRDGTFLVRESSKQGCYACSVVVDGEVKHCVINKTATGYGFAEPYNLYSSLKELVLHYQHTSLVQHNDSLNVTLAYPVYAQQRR
Procedure: The ability of compounds of the invention to inhibit PI3K activity was determined in a homogeneous TR-FRET assay using a PI3K assay kit (Millipore, USA; cat #33-016) according to manufacturer's instructions. PI3-Kinases (isoforms α, β, γ and δ) catalyze the phosphorylation of phosphatidylinositol, PIP2 to PIP3 in the presence of ATP and Mg^2+. The PIP3 product is detected by displacement of biotin-PIP3 from an energy transfer complex consisting of Europium labeled anti-GST monoclonal antibody, a GST-tagged PH domain, biotinylated PIP3 and Streptavidin-APC. Excitation of Europium in the complex results in an energy transfer to the APC and a fluorescence emission at 665 nm. The PIP3 product displaces biotin-PIP3 from the complex resulting in a loss of energy transfer and thus a decrease in signal.
To test for the ability of compounds to inhibit the activity of PI3Kα (wild-type), exemplary compounds of formula (I) were dissolved in DMSO and directly distributed into 384-well plates at a volume of 0.5 μL. 14.5 μL of P110/P85α/PIP2 mixture in buffer (obtained from the Millipore kit) containing MgCl2 (40 mM) and DTT (5 mM) was added to compound wells and incubated for 60 minutes at room temperature. P110/P85α was expressed in SF9 insect cells and purified nickel column extraction. Five ng of wild-type P110/P85α was used in the assay. The kinase reaction was started by the addition of ATP. The assay concentrations of both PIP2 and ATP were 10 μM. The reaction mixture was incubated for 30 minutes at room temperature and was terminated by the addition of stop mix and detection mix. Fluorescence was measured at 615 and 665 nm upon excitation at 340 nm in a Victor™ V5 fluorometer (Perkin Elmer, USA). The fluorescence emission ratio at 665 to 615 nm, proportional to the kinase activity, was plotted against the compound concentration to generate dose-response curves and IC50 values were determined using GraphPad Prism® 5 software.

mTOR kinase = target: T2, mTOR kinase (Homo sapiens, UniProt P42345); experiment: mTOR kinase TR-FRET assay; format: biochemical; conditions: 20 μM ATP
T2 construct: purchased Millipore, USA
T2 sequence (P42345 1362-2549 limits assumed): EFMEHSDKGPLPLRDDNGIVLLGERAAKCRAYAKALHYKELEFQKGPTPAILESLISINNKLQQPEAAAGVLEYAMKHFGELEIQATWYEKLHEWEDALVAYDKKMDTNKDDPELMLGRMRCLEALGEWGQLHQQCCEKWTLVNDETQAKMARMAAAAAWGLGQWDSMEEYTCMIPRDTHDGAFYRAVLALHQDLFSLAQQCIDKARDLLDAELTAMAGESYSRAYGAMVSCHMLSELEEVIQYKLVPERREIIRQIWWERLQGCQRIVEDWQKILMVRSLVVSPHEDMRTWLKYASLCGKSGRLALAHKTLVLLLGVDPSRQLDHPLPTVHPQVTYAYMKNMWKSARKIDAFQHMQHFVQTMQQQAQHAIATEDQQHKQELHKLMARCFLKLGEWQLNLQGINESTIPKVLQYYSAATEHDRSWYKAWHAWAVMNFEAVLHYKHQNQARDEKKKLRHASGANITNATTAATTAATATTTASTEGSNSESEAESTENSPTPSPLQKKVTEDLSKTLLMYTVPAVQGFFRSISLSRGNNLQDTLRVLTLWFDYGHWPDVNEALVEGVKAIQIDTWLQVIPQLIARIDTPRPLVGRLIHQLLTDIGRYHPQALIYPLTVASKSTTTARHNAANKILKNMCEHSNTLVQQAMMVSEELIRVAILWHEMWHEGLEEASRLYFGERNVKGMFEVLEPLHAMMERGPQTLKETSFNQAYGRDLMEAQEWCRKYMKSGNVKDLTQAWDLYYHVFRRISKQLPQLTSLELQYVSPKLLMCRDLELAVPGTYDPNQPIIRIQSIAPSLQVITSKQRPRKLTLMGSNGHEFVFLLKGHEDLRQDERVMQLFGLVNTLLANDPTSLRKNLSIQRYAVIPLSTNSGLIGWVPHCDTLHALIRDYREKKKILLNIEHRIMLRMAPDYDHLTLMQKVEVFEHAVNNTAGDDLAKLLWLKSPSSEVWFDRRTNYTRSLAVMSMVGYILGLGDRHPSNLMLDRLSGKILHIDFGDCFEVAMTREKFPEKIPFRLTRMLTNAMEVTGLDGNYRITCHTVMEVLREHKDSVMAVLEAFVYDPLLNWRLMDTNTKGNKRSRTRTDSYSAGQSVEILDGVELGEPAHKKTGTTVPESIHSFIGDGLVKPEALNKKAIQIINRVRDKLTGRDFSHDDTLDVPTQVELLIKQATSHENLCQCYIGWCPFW
Procedure: Compound inhibition for mTOR kinase was determined in a homogeneous TR-FRET assay using the Lance® ULight-p70 S6K (Thr 389) peptide (obtained from Perkin-Elmer). The ULight™-labeled synthetic peptide contains the amino acid residues surrounding Thr389 of human p70 S6K. The ULight-p70 S6K peptide is phosphorylated at Thr389 by mTOR. Phosphorylation motif: LGFTYVAP as substrate.
The compound dilution was carried out in 100% DMSO followed by a buffer dilution. The reaction buffer was HEPES (50 mM pH 7.5), EGTA (1 mM), MnCl2 (3 mM). Test compounds at various concentrations were pre-incubated with mTOR (Millipore, USA; 5 ng) for 60 min, and then the Lance® ULight-p70 S6K (Thr 389) peptide (50 nM) was added along with ATP (20 μM). After incubating the reaction mixture for 60 minutes at room temperature, the kinase reaction was terminated by the addition of EDTA (10 mM) followed by the addition of detection mix, i.e., 1 nM Eu-labeled anti-phospho-substrate antibody (Perkin Elmer, USA). The fluorescence emission at […] was measured upon excitation at 340 nm. IC50 values were subsequently determined using a sigmoidal dose-response curve (variable slope) in GraphPad Prism® 5 software.
Compounds of formula (I) caused inhibition of mTOR kinase activity as determined by this assay.

Row | SMILES | IC50 (PC3 cells) | IC50 (PI3Kα (wild-type)) | IC50 (mTOR kinase)
1 | CC(=O)N1CCN(C(=O)c2cccc(-c3cnc4c(N5CCOCC5)nc(-c5cnc(N)nc5)nc4c3)c2)CC1 [Example 35, 1-(4-(3-(2-(2-amino-pyrimidin-5-yl)-4-morpholinopyrido[3,2-d]-pyrimidin-7-yl)benzoyl)-piperazin-1-yl)ethanone] | 501 to 5000 nM | < 50 nM | 50 to 200 nM
2 | Nc1ncc(-c2nc(N3CCOCC3)c3ncc(-c4ccc(C(=O)Nc5ccncc5)cc4)cc3n2)cn1 [Example 38, 4-(2-(2-aminopyrimidin-5-yl)-4-morpholino-pyrido[3,2-d]pyrimidin-7-yl)-N-(pyridin-4-yl)-benzamide] | > 1000 nM | < 50 nM | 50 to 200 nM
3 | CC(F)C(=O)Nc1cccc(-c2cnc3c(N4CCOCC4)nc(-c4cnc(N)nc4)nc3c2)c1 (stereo not drawn) [Example 51, N-(3-(2-(2-amino-pyrimidin-5-yl)-4-morpholinopyrido[3,2-d]pyrimidin-7-yl)phenyl)-2-fluoropropanamide] | 100 to 500 nM | < 50 nM | < 50 nM
4 | CC(=O)Nc1ccc(F)c(-c2cnc3c(N4CCOCC4)nc(-c4cnc(N)nc4)nc3c2)c1 [Example 55, N-(3-(2-(2-amino-pyrimidin-5-yl)-4-morpholinopyrido[3,2-d]pyrimidin-7-yl)-4-fluorophenyl)acetamide] | 100 to 500 nM | < 50 nM | 50 to 200 nM
5 | Nc1ncc(-c2nc(N3CCOCC3)c3ncc(-c4cccc(NC(=O)C5CCCCC5)c4)cc3n2)cn1 [Example 60, N-(3-(2-(2-amino-pyrimidin-5-yl)-4-morpholinopyrido[3,2-d]pyrimidin-7-yl)-phenyl)cyclohexane-carboxamide] | 501 to 5000 nM | < 50 nM | 50 to 200 nM
6 | Nc1ncc(-c2nc(N3CCOCC3)c3ncc(-c4cccc(NC(=O)C56CC7CC(CC(C7)C5)C6)c4)cc3n2)cn1 [Example 65, N-(3-(2-(2-amino-pyrimidin-5-yl)-4-morpholinopyrido[3,2-d]pyrimidin-7-yl)-phenyl)adamantane-1-carboxamide] | 501 to 5000 nM | < 50 nM | 201 to 10000 nM
7 | Nc1ncc(-c2nc(N3CCOCC3)c3ncc(-c4ccc(NC(=O)c5cccnc5)cc4)cc3n2)cn1 [Example 77, N-(4-(2-(2-amino-pyrimidin-5-yl)-4-morpholinopyrido[3,2-d]pyrimidin-7-yl)-phenyl)nicotinamide] | 100 to 500 nM | < 50 nM | < 50 nM
8 | CN1CCN(CC(=O)Nc2cccc(-c3cnc4c(N5CCOCC5)nc(-c5cnc(N)nc5)nc4c3)c2)CC1 [Example 83, N-(3-(2-(2-aminopyrimidin-5-yl)-4-morpholinopyrido[3,2-d]pyrimidin-7-yl)phenyl)-2-(4-methylpiperazin-1-yl)acetamide] | 100 to 500 nM | < 50 nM | 50 to 200 nM
9 | CN1CCN(C(=O)Nc2cccc(-c3cnc4c(N5CCOCC5)nc(-c5cnc(N)nc5)nc4c3)c2)CC1 [Example 89, N-(3-(2-(2-aminopyrimidin-5-yl)-4-morpholinopyrido[3,2-d]pyrimidin-7-yl)phenyl)-4-methylpiperazine-1-carboxamide] | 501 to 5000 nM | < 50 nM | < 50 nM
10 | Nc1ncc(-c2nc(N3CCOCC3)c3ncc(-c4cccc(C(=O)Nc5ccncc5F)c4)cc3n2)cn1 [Example 97, 3-(2-(2-aminopyrimidin-5-yl)-4-morpholinopyrido[3,2-d]-pyrimidin-7-yl)-N-(3-fluoropyridin-4-yl)-benzamide] | 100 to 500 nM | < 50 nM | < 50 nM
11 | Nc1ncc(-c2nc(N3CCOCC3)c3ncc(-c4cccc(C(=O)NC5CC5)c4)cc3n2)cn1 [Example 98, 3-(2-(2-aminopyrimidin-5-yl)-4-morpholinopyrido[3,2-d]-pyrimidin-7-yl)-N-cyclopropylbenzamide] | 100 to 500 nM | < 50 nM | < 50 nM
12 | Nc1ncc(-c2nc(N3CCOCC3)c3ncc(-c4cccc(NC(=O)c5cncc(F)c5)c4)cc3n2)cn1 [Example 99, N-(3-(2-(2-amino-pyrimidin-5-yl)-4-morpholinopyrido[3,2-d]-pyrimidin-7-yl)phenyl)-5-fluoronicotinamide] | 100 to 500 nM | < 50 nM | < 50 nM
13 | CN1CCN(c2cncc(-c3cnc4c(N5CCOCC5)nc(-c5cnc(N)nc5)nc4c3)c2)CC1 [Example 100, 5-(7-(5-(4-methyl-piperazin-1-yl)pyridin-3-yl)-4-morpholino-pyrido[3,2-d]pyrimidin-2-yl)pyrimidin-2-amine] | 501 to 5000 nM | < 50 nM | 50 to 200 nM
14 | CN1CCN(c2cccc(-c3cnc4c(N5CCOCC5)nc(-c5cnc(N)nc5)nc4c3)c2)CC1 [Example 101, 5-(7-(3-(4-methyl-piperazin-1-yl)phenyl)-4-morpholinopyrido[3,2-d]-pyrimidin-2-yl)pyrimidin-2-amine] | 100 to 500 nM | < 50 nM | 50 to 200 nM
15 | CN(C)CCNC(=O)c1cccc(-c2cnc3c(N4CCOCC4)nc(-c4cnc(N)nc4)nc3c2)c1 [Example 102, 3-(2-(2-aminopyrimidin-5-yl)-4-morpholinopyrido[3,2-d]-pyrimidin-7-yl)-N-(2-(dimethylamino)ethyl)-benzamide] | 100 to 500 nM | < 50 nM | 50 to 200 nM
16 | Nc1ncc(-c2nc(N3CCOCC3)c3ncc(-c4cccc(N5CCNCC5)c4)cc3n2)cn1 [Example 106, 5-(4-morpholino-7-(3-(piperazin-1-yl)-phenyl)pyrido[3,2-d]-pyrimidin-2-yl)pyrimidin-2-amine] | 501 to 5000 nM | < 50 nM | 50 to 200 nM
17 | CC(C)(O)C(=O)N1CCN(c2cccc(-c3cnc4c(N5CCOCC5)nc(-c5cnc(N)nc5)nc4c3)c2)CC1 [Example 108, 1-(4-(3-(2-(2-amino-pyrimidin-5-yl)-4-morpholinopyrido[3,2-d]pyrimidin-7-yl)-phenyl)piperazin-1-yl)-2-hydroxy-2-methylpropan-1-one] | 100 to 500 nM | < 50 nM | < 50 nM
18 | Nc1ncc(-c2nc(N3CCOCC3)c3ncc(-c4ccc5c(c4)NC(=O)CO5)cc3n2)cn1 [Example 111, 6-(2-(2-aminopyrimidin-5-yl)-4-morpholinopyrido[3,2-d]pyrimidin-7-yl)-2H-benzo[b][1,4]oxazin-3(4H)-one] | 100 to 500 nM | < 50 nM | 50 to 200 nM
19 | Nc1ncc(-c2nc(N3CCOCC3)c3ncc(-c4cccc(N5CCN(CCO)CC5)c4)cc3n2)cn1 [Example 113, 2-(4-(3-(2-(2-amino-pyrimidin-5-yl)-4-morpholinopyrido[3,2-d]pyrimidin-7-yl)-phenyl)piperazin-1-yl)-ethanol] | 501 to 5000 nM | < 50 nM | < 50 nM
20 | CC(=O)Nc1cc(-c2cnc3c(N4CCOCC4)nc(-c4cnc(N)nc4)nc3c2)ccc1N1CCN(C)CC1 [Example 114, N-(5-(2-(2-amino-pyrimidin-5-yl)-4-morpholinopyrido[3,2-d]pyrimidin-7-yl)-2-(4-methylpiperazin-1-yl)-phenyl)acetamide] | 100 to 500 nM | < 50 nM | < 50 nM
